Data as given in patent US20120076757A1, “COMPOSITION FOR TRANSMUCOSAL DELIVERY OF POLYPEPTIDES” (Cephalon, Inc., priority 2007, published 2012).

Assays:
[1] = Anaesthetized dog model, desmopressin oral transmucosal (buccal) permeation, serum by LC/MS/MS; format: in vivo
From the text: Anesthetized dog models were used to evaluate transmucosal permeation of polypeptide compositions prepared in accordance with the invention. Mature mongrel large-breed (15-35 kg) dogs were screened for medical conditions to qualify. For testing, the dogs were anaesthetized, placed on their right or left side, and cannulated via the cephalic vein. A Teflon ring was attached to the buccal mucosa in a horizontal position to form a reservoir. Biologically active polypeptides to be evaluated were deposited, with or without enhancer components, onto the buccal mucosa surrounded by the ring. Depending upon the experiment, active polypeptides were deposited in the form of solution, dry powder or solid dosage form (tablet). Blood samples were taken every 10 minutes for a period of 2 hours, with additional samples taken up to 4 hours depending upon the protocol. The active-containing compositions were removed from the reservoir at 60 minutes and the reservoir rinsed twice.
At 2 hours, the dog is removed from anesthesia and the ring is removed from its buccal mucosa. Following recovery from anesthesia, subsequent blood samples are taken from the awake dogs. Blood samples are allowed to clot, the serum is separated by centrifugation, and the serum is frozen at −20° or −80° C., depending upon the protocol until analyzed for the active polypeptide content.
Desmopressin (deamino-Cysl-D-Arg Vasopressin, or D-Arg Vasopresin) was tested for buccal permeation into the blood stream by various administration forms: solution, powder, and compressed tablet.
Desmopressin-containing tablets for the experiment were prepared by combining 200 mg of effervescent formulation described in Example 1A (EF 1) with 20 mg sodium taurocholate. This mixture was added directly into a vial of lyophilized desmopressin. […]
Tablets prepared accordingly were tested in dogs per protocol described above. […] Desmopres sin was measured using LC/MS/MS analysis o the serum samples.

[2] = test system: cultured human buccal carcinoma cells (SqCC/Y1 cells)
Description: (§1) In vitro permeability testing was conducted as follows. Starting with acrylic inserts having one end sealed with 0.6 cm square area inserts of acrylic and polycarbonate membranes without cells, the cultured human buccal carcinoma cells (SqCC/Y1 cells) were grown on the membrane surface in culture medium for a period of 24 hours. The culture medium was removed from the top of the insert (“air-lifting” process), wherein the cells continued to receive nutrients from the culture medium beneath the inserts. Under these conditions, the cells were grown for a period of 7 to 10 days so as to grow the cells to multilayer confluence on the polycarbonate membrane, thereby increasing cellular density to a multi-layer, tissue-like barrier resembling that of buccal mucosal tissue.
(§2) The assay was performed by rinsing the inserts with Krebs-Ringer buffer solution without sodium bicarbonate (KRB) and inspecting for uniformity by measuring the transepithelial electrical resistance (TEER). When the average electrical resistance necessary was 350 ohms or greater, the inserts were selected for permeability testing, thereby ensuring consistent permeability barrier thickness and distribution.
(§3) The inserts were separated into the groups (e.g., n=3) with closely similar average TEER values (of the group) to be used in testing particular formulations of active pharmaceutical ingredients (i.e., polypeptide). For a given bile salt, for example, the sample groups were as follows: • 1) polypeptide alone; • 2) polypeptide in combination with bile salt; • 3) polypeptide in combination with effervescent excipient composition (Excipient Formula 1) powder; • 4) polypeptide in combination with bile salt (varying concentrations) and effervescent excipient composition (Excipient Formula 1) powder.
(§4) The inserts were placed into cell culture wells with a defined volume of KRB and incubated at 37° C. on shaker tables set at 100 rpm. Thus, the cells were exposed to the given active ingredient (polypeptide) without and in combination with the various excipient formulations described.
(§5) Samples were removed from the basolateral fluid every 10 minutes for a period of one hour, and the removed fluid was replaced with an equal volume of KRB. At the end of the hour, the residual fluid within the insert was recovered and stored, the insert was rinsed with KRB, and the TEER value again measured. The TEER differences between the starting step TEER and final step TEER were recorded.
(§6) The samples from the basolateral wells were analyzed for the active ingredient (polypeptide) using various techniques. The amount of active in the well was calculated and corrected for sampling loss.
(§7) Enhancement Ratio (ER) is equal to the ratio of the Papp with absorption enhancer divided by the Papp without absorption enhancer. Thus, this technique was used for each of the proposed permeability enhancement compositions below.
(§8) The permeability of fluorescently-labeled polypeptide with and without enhancement was measured by the in vitro permeability assay. The amount of polypeptide permeating through the cells/tissue into the basolateral fluid was measured and the apparent permeability coefficient (Papp) for each polypeptide sample was calculated.

[3] = Anaesthetized dog model, salmon calcitonin oral transmucosal permeation from effervescent tablets; format: in vivo; settings: adding 2.5% NaTC or more to the effervescent formulation
From the text: Anesthetized dog models were used to evaluate transmucosal permeation of polypeptide compositions prepared in accordance with the invention. Mature mongrel large-breed (15-35 kg) dogs were screened for medical conditions to qualify. For testing, the dogs were anaesthetized, placed on their right or left side, and cannulated via the cephalic vein. A Teflon ring was attached to the buccal mucosa in a horizontal position to form a reservoir. Biologically active polypeptides to be evaluated were deposited, with or without enhancer components, onto the buccal mucosa surrounded by the ring. Depending upon the experiment, active polypeptides were deposited in the form of solution, dry powder or solid dosage form (tablet). […]
At 2 hours, the dog is removed from anesthesia and the ring is removed from its buccal mucosa. […] Blood samples are allowed to clot, the serum is separated by centrifugation, and the serum is frozen at −20° or −80° C., depending upon the protocol until analyzed for the active polypeptide content.
Salmon calcitonin (s-Ct) was tested for buccal permeation into the blood stream of anesthetized dogs with effervescent compressed tablets containing s-Ct and the bile salt (sodium taurocholate) at 0%, 2.5%, 5.0%, and 10% bile salt. […] The following table contains the formulation information of the tablets evaluated. […]

[4] = test system: cultured human buccal carcinoma cells (SqCC/Y1 cells); assay: In vitro permeability assay (apparent permeability coefficient Papp across multilayer buccal cell culture); settings: ELISA
Description: as §1, §2, §3, §4, §5, §6, §7, §8

[5] = INTRON A acquired from Schering Corp.; cited from earlier work
[6] = with bile salt (sodium taurocholate) alone

NC(=O)CC[C@@H]1NC(=O)[C@H](Cc2ccccc2)NC(=O)[C@H](Cc2ccc(O)cc2)NC(=O)CCSSC[C@@H](C(=O)N2CCC[C@H]2C(=O)N[C@H](CCCN=C(N)N)C(=O)NCC(N)=O)NC(=O)[C@H](CC(N)=O)NC1=O [Desmopressin, deamino-Cysl-D-Arg Vasopressin]
permeation of the polypeptide across the mucosal tissue in the in vivo model ([1]; desmopressin in combination with the bile salt alone): does not appear to appreciably increase the permeation
transport/permeation of the polypeptide across the mucosal tissue in the in vivo model ([1]; desmopressin with combination of bile salt and effervescent formulation): appears to appreciably enhance
permeation of the polypeptide across the mucosal tissue in the in vivo model ([1]; desmopressin with the effervescent formulations alone): does not appear to appreciably increase the permeation
in vitro permeation of desmopressin across mucosal tissue (Papp) [2]: does not appear to appreciably increase polypeptide permeation
in vitro transport/permeability of desmopressin across mucosal tissue (Papp) [2]: appears to exhibit appreciable enhancement

CC(C)C[C@H](NC(=O)[C@H](CCCCN)NC(=O)CNC(=O)[C@H](CC(C)C)NC(=O)[C@@H](NC(=O)[C@@H]1CSSC[C@H](N)C(=O)N[C@@H](CO)C(=O)N[C@@H](CC(N)=O)C(=O)N[C@@H](CC(C)C)C(=O)N[C@@H](CO)C(=O)N[C@@H]([C@@H](C)O)C(=O)N1)C(C)C)C(=O)N[C@@H](CO)C(=O)N[C@@H](CCC(N)=O)C(=O)N[C@@H](CCC(=O)O)C(=O)N[C@@H](CC(C)C)C(=O)N[C@@H](Cc1c[nH]cn1)C(=O)N[C@@H](CCCCN)C(=O)N[C@@H](CC(C)C)C(=O)N[C@@H](CCC(N)=O)C(=O)N[C@H](C(=O)N[C@@H](Cc1ccc(O)cc1)C(=O)N1CCC[C@H]1C(=O)N[C@@H](CCCNC(=N)N)C(=O)N[C@H](C(=O)N[C@@H](CC(N)=O)C(=O)N[C@H](C(=O)NCC(=O)N[C@@H](CO)C(=O)NCC(=O)N[C@H](C(=O)N1CCC[C@H]1C(N)=O)[C@@H](C)O)[C@@H](C)O)[C@@H](C)O)[C@@H](C)O [s-CT]
transmucosal permeability of s-Ct in anesthetized dogs [3]: large improvement in permeability
permeation result of combination compared with individual effects ([4]; s-CT + taurocholate + EF 2): greater than the sum of the individual permeation effects
in vitro permeation of s-CT across mucosal tissue (Papp) ([4]; with EF 2 alone): does not appear to exhibit an increase in permeation
in vitro permeation of s-CT across mucosal tissue (Papp) [4, 6]: does not appear to exhibit an increase in permeation
in vitro permeation/transport of s-CT across mucosal tissue (Papp) ([4]; with effervescent formulation (EF 2) and 1% or 2% bile salt): does appear to exhibit appreciably enhanced permeation/transport

IFNα
specific activity [5]: 260 million IU per mg protein
permeation result of combination compared with individual effects ([4]; IFNα + taurocholate + EF 1): greater than the sum of the individual permeation effects
in vitro permeation of IFNα across mucosal tissue (Papp) ([4]; with 1% or 2% bile salt and effervescent composition (EF 1)): does appears to produce appreciable enhancement
in vitro permeation of IFNα across mucosal tissue (Papp) ([4]; with EF 1 alone): does not appear to appreciably increase the permeation
in vitro permeation of IFNα across mucosal tissue (Papp) ([4]; with bile salt alone): does not appear to appreciably increase the permeation

IGF-1: Insulin-like Growth Factor-1, 70 amino acids with 3 internal disulfide bonds
permeation result of combination compared with individual effects ([4]; IGF-1 + taurocholate + EF2): greater than the sum of the individual permeation effects
in vitro permeation of IGF-1 across mucosal tissue (Papp) ([4]; with EF 2 alone): does not appear to exhibit an increase in permeation
in vitro permeation/transport of IGF-1 across mucosal tissue (Papp) ([4]; with EF2 and 1% bile salt): appears to exhibit enhanced permeation/transport
in vitro permeation of IGF-1 across mucosal tissue (Papp) [4, 6]: does not appear to exhibit an increase in permeation
